Data from ChEMBL document CHEMBL3431459, “Roche carnitine palmitoyltransferase modulator screening data (supplementary data associated with the publication CHEMBL2216752)”.
≈ marks a conversion by molar mass, not a printed value.

Experiments:
[1] = SUPPLEMENTARY: Lyophilisation Solubility Assay (LYSA); type: physicochemical; details: read-out: Kinetic_solubility
[2] = SUPPLEMENTARY: Lipophilicity (log D) Determination by high-throughput shake-flask; type: physicochemical; details: octanol/water
[3] = target: T1, Carnitine O-palmitoyltransferase 1, muscle isoform (Homo sapiens, UniProt Q92523); test: SUPPLEMENTARY: Inhibition of Carnitine palmitoyltransferase 1, muscle isoform; design: species or system Muscle tissue
T1 sequence (Q92523 whole entry): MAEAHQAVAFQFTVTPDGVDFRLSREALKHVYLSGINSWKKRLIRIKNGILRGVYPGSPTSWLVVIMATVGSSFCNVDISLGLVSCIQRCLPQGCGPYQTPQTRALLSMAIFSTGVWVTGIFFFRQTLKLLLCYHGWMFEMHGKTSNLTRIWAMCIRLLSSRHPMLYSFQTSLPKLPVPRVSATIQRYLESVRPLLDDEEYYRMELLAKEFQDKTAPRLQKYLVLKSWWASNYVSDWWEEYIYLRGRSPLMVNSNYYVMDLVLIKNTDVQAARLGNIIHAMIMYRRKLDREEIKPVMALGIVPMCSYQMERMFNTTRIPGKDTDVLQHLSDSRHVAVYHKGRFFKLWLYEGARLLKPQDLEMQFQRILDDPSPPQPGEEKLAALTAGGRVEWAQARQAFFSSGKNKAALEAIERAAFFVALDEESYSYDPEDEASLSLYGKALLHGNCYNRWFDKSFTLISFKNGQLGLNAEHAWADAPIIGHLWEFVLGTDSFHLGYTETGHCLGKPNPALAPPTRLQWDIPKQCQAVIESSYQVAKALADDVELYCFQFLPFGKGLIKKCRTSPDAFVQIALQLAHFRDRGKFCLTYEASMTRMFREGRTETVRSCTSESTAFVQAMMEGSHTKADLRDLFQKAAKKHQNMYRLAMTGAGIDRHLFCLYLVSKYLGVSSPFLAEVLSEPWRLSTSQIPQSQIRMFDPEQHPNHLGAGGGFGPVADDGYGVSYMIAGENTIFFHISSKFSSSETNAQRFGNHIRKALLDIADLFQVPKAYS

[4] = target: T2, Carnitine O-palmitoyltransferase 2, mitochondrial (Homo sapiens, UniProt P23786); test: (§1) SUPPLEMENTARY: Inhibition of Carnitine palmitoyltransferase 2
T2 sequence (P23786 whole entry): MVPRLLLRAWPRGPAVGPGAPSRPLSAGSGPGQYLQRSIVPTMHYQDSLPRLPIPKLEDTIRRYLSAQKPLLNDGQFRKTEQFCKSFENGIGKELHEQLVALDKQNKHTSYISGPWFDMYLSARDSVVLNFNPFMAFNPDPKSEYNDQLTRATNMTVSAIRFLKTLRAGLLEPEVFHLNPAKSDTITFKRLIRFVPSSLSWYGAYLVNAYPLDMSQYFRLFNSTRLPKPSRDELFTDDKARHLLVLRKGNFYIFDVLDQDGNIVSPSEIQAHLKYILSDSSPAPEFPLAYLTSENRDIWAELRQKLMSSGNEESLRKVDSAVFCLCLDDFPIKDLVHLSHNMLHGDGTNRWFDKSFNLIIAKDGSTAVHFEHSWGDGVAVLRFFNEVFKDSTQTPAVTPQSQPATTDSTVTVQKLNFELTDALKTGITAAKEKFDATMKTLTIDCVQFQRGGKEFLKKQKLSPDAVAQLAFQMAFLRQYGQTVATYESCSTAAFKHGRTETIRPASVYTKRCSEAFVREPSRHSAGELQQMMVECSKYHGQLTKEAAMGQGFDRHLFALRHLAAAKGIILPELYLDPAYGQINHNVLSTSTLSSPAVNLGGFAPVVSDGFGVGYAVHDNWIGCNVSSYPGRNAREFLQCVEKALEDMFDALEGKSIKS

[5] = target: T3, Carnitine O-palmitoyltransferase 2, mitochondrial (Rattus norvegicus, UniProt P18886); test: as §1
T3 sequence (P18886 whole entry): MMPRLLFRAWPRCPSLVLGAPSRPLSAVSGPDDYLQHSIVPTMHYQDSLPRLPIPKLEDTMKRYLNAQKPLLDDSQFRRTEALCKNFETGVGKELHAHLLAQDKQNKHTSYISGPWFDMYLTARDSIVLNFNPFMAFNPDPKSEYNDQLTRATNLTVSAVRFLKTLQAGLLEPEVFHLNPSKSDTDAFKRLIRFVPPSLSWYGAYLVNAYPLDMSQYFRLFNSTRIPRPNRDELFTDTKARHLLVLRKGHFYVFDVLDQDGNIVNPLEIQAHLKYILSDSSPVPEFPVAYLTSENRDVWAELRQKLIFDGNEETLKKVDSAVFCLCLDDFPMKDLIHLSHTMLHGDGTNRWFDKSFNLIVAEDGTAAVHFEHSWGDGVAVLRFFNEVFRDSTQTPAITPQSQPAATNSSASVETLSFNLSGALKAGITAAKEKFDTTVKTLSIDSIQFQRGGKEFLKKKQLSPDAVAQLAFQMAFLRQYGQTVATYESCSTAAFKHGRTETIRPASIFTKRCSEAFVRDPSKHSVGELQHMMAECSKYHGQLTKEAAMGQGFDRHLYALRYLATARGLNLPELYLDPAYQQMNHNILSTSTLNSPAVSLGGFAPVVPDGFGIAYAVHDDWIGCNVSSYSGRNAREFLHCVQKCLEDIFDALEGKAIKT

[6] = SUPPLEMENTARY: PAMPA permeability assay; type: physicochemical; details: read-out: Permeability
[7] = target: T4, Carnitine O-palmitoyltransferase 1, liver isoform (Rattus norvegicus, UniProt P32198); test: (§2) SUPPLEMENTARY: Inhibition of Carnitine palmitoyltransferase 1, liver isoform
T4 sequence (P32198 whole entry): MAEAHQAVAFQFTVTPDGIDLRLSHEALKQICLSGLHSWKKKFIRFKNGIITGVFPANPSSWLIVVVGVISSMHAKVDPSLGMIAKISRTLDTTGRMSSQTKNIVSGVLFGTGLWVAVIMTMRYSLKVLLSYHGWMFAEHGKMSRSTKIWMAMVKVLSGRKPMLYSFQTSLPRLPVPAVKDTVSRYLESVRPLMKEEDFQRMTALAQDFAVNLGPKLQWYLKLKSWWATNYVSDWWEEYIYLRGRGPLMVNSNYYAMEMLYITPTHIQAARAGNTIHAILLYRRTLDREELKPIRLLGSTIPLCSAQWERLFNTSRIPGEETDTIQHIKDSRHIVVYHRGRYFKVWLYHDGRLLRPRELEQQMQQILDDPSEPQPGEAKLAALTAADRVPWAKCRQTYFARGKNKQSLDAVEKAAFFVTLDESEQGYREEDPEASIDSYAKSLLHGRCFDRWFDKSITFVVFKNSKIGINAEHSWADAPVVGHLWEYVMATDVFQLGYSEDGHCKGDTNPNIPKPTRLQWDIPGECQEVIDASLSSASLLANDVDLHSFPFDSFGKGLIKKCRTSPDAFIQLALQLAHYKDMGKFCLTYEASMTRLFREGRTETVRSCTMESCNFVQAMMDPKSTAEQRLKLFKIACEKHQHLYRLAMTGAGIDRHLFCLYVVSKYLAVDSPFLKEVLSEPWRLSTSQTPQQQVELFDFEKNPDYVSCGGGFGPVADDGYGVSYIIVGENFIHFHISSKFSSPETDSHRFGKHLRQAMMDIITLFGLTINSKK

[8] = target: T5, Carnitine O-palmitoyltransferase 1, liver isoform (Homo sapiens, UniProt P50416); test: as §2
T5 sequence (P50416 whole entry): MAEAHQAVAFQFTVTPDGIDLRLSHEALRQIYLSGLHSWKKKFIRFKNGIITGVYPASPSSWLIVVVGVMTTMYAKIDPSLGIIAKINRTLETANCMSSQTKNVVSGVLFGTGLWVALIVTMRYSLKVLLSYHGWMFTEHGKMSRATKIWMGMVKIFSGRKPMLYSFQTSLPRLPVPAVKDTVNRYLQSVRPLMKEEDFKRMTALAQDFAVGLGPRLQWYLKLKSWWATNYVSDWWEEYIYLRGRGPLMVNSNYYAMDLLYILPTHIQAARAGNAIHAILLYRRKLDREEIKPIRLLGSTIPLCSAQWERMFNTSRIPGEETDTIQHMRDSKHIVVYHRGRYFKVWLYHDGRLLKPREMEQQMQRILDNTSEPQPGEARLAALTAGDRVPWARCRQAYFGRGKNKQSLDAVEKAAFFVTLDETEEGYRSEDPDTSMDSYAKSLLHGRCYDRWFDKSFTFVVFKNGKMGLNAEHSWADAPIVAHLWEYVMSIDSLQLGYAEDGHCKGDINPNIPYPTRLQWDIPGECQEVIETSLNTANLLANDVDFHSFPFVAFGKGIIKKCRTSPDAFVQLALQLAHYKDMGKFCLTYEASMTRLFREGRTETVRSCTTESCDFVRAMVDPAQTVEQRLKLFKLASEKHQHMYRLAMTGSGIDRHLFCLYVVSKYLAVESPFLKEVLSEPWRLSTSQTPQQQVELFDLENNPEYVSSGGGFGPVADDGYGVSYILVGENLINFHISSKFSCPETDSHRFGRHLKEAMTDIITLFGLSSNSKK

Row | SMILES | solubility kinetic [1] | logD [2] | IC50 [3] | IC50 [4] | IC50 [5] | Papp [6] | IC50 [7] | IC50 [8]
1 | O=C(COc1ccccc1)N1CCCC[C@@H]1c1nc(-c2cc[nH]c(=O)c2)no1 | 275 µg/mL (≈ 723 µM) | 1.9 | > 100 µM | > 100 µM | 88.7 µM | 5.39 ×10⁻⁶ cm/s | 0.337 µM | 0.0834 µM
2 | COc1ccc(Cl)cc1CN1C(=O)OC(C)(C)c2ccc(C(=O)Nc3ccc(C(=O)O)cc3)cc21 | 3 µg/mL (≈ 6.06 µM) | 2.38 | 6.24 µM | 10.8 µM | 28.1 µM | 1.81 ×10⁻⁶ cm/s | 0.0968 µM | 0.0885 µM
3 | COc1ccc(Cl)cc1S(=O)(=O)N1CCSc2ccc(C(=O)Nc3nc(CC(=O)O)cs3)cc21 | 5 µg/mL (≈ 9.26 µM) | 0.39 | 0.992 µM | > 100 µM | > 100 µM | 3.65 ×10⁻⁶ cm/s | 0.0204 µM | 0.0116 µM
4 | CC(=O)Nc1cccc(C#C[C@H]2CCCCN2C(=O)COc2ccccc2)c1 | < 1 µg/mL | 3.49 | > 100 µM | > 100 µM | > 100 µM | 1.79 ×10⁻⁶ cm/s | 0.191 µM | 0.108 µM
5 | O=C1CN(c2cccc(-c3n[nH]c([C@H]4CCCCN4C(=O)COc4ccccc4)n3)c2)C(=O)N1 | 54 µg/mL (≈ 117 µM) | 2.16 | 61.8 µM | 23.5 µM | 56.9 µM | 1.92 ×10⁻⁶ cm/s | 0.15 µM | 0.0968 µM
6 | O=C(COc1ccccc1)N1CCCC[C@@H]1c1noc(-c2cccc(-n3cn[nH]c3=O)c2)n1 | 48 µg/mL (≈ 108 µM) | 2.35 | > 100 µM | 12 µM | > 100 µM | 3.47 ×10⁻⁶ cm/s | 0.334 µM | 0.0591 µM
7 | O=C(Nc1ccc(C(=O)O)c(F)c1)c1ccc2c(c1)N(S(=O)(=O)c1cccc(C(F)(F)F)c1)CC2 | 9 µg/mL (≈ 17.7 µM) | 2.77 | 42.2 µM | 32 µM | 72.2 µM | 1.99 ×10⁻⁶ cm/s | 0.0795 µM | 0.167 µM
8 | COC1CCC(c2nc([C@H]3CCCCN3C(=O)COc3ccccc3)no2)CC1 (some centres not stated) | 50.5 µg/mL (≈ 126 µM) | 2.83 | > 100 µM | 78.4 µM | > 100 µM | 3.5 ×10⁻⁶ cm/s | 0.222 µM | 0.191 µM
9 | COc1ccc(Cl)cc1S(=O)(=O)N1COc2c(F)cc(C(=O)Nc3ccc(C(=O)O)c(F)c3)cc21 | 59 µg/mL (≈ 112 µM) | 0.63 | 4.93 µM | 1.95 µM | 10.5 µM | 1.87 ×10⁻⁶ cm/s | 0.0844 µM | 0.0617 µM
10 | O=C(COc1ccccc1)N1CCCC[C@@H]1c1noc(-c2ccc(C(F)(F)F)nc2)n1 | 8 µg/mL (≈ 18.5 µM) | 3.38 | > 100 µM | 6.6 µM | 71 µM | 2.21 ×10⁻⁶ cm/s | 0.2 µM | 0.197 µM
11 | O=C(COc1ccccc1)N1CCCC[C@@H]1c1noc(-c2cc([N+](=O)[O-])[nH]n2)n1 | 68 µg/mL (≈ 171 µM) | 1.07 | > 100 µM | > 100 µM | > 100 µM | 6.99 ×10⁻⁶ cm/s | 0.388 µM | 0.14 µM
12 | O=C([C@H]1CCCCN1C(=O)COc1ccccc1)N1Cc2ccc(C3CCOCC3)cc2C1 | 14 µg/mL (≈ 31.2 µM) | 2.8 | > 100 µM | 0.642 µM | 0.477 µM | 4.45 ×10⁻⁶ cm/s | 0.0641 µM | 0.0638 µM
13 | O=C(O)c1ccc(NC(=O)c2ccc3c(c2)N(Cc2cccc(Cl)c2)C(=O)CS3(=O)=O)cc1 | 26 µg/mL (≈ 53.6 µM) | 0.47 | 5.17 µM | 68.5 µM | > 100 µM | 1.05 ×10⁻⁶ cm/s | 0.184 µM | 0.229 µM
14 | COc1ccc(Cl)cc1CN1C(=O)CSc2ccc(C(=O)Nc3nc(CC(=O)O)cs3)cc21 | 31 µg/mL (≈ 61.5 µM) | 0.72 | 1.72 µM | > 100 µM | > 100 µM | 1.53 ×10⁻⁶ cm/s | 0.0759 µM | 0.125 µM
